Source: PubChem BioAssay (NCI)
Several values for one entry are separate records, joined by “and”; a condition that tells them apart may be missing. Equal values may be shown once.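 Cultured in 96-well plates, cells were exposed to test compound for 48 hours across five concentrations. GI50 is the concentration that inhibits growth by half. TGI: concentration producing complete growth inhibition.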

Columns and labels:
Test in all cases: NCI-60 cell line screen, 48 h
[1] = test system: UO-31 renal
[2] = test system: SN12C renal
[3] = test system: OVCAR-8 ovarian
[4] = test system: ACHN renal
[5] = test system: MOLT-4 leukemia
[6] = test system: SK-OV-3 ovarian
[7] = test system: LOX IMVI melanoma
[8] = test system: RXF 393 renal
[9] = test system: NCI-H23 lung
[10] = test system: SK-MEL-28 melanoma

C/C(=N\NC(=S)N1CCC1)c1ccccn1
GI50 [1]: 0.0188 µM
TGI [1]: 15.3 µM
GI50 [2]: 0.0289 µM
TGI [2]: > 100 µM
GI50 [3]: 0.00715 µM
TGI [3]: 12 µM
GI50 [4]: 0.00656 µM
TGI [4]: 34.6 µM
GI50 [5]: 0.00601 µM
TGI [5]: > 10.5 µM
TGI [6]: 5.7 µM
GI50 [7]: 0.00525 µM
TGI [7]: 15.9 µM
TGI [8]: 4.39 µM
GI50 [9]: 0.00622 µM
TGI [9]: 39.7 µM
TGI [10]: > 56 µM

NC1=NC(c2ccccc2Cl)c2c(n[nH]c2N)N1 (centres undefined)
GI50 [1]: 9.21 µM
TGI [1]: > 100 µM
GI50 [2]: 8.35 µM
TGI [2]: > 100 µM
GI50 [3]: 45.6 µM
TGI [3]: > 100 µM
GI50 [4]: 34.6 µM
TGI [4]: > 100 µM
GI50 [5]: 22.5 µM
TGI [5]: > 100 µM
GI50 [6]: > 100 µM
TGI [6]: > 100 µM
GI50 [7]: 2.98 µM
TGI [7]: > 100 µM
GI50 [8]: 13.7 µM
TGI [8]: 97.6 µM
GI50 [9]: 20.3 µM
TGI [9]: > 100 µM
GI50 [10]: 42.5 µM
TGI [10]: > 100 µM

CCOC(=O)C[C@@]12CCCN[C@]1(C)CCc1ccccc12
TGI [1]: > 100 µM
TGI [2]: > 100 µM
TGI [3]: > 100 µM
TGI [4]: > 100 µM
TGI [5]: > 100 µM
TGI [6]: > 100 µM
TGI [7]: > 100 µM
TGI [8]: > 100 µM
TGI [9]: > 100 µM
TGI [10]: > 100 µM

O=C(CI)NC(=O)NC(=O)NCc1ccccc1
GI50 [1]: 1.66 µM
TGI [1]: 3.31 µM
GI50 [2]: 3.5 µM
TGI [2]: 14.6 µM
GI50 [3]: 4.32 µM
TGI [3]: 19.6 µM
GI50 [4]: 1.95 µM
TGI [4]: 3.76 µM
GI50 [5]: 0.969 µM
TGI [5]: 3.15 µM
GI50 [6]: 15.4 µM
TGI [6]: 29 µM
GI50 [7]: 1.44 µM
TGI [7]: 3 µM
GI50 [8]: 2.98 µM
TGI [8]: 9.31 µM
GI50 [9]: 4.32 µM
TGI [9]: 19.5 µM
GI50 [10]: 2.96 µM
TGI [10]: 11.3 µM

CC[n+]1c(-c2ccccc2)c2cc(N)ccc2c2ccc(N)cc21
GI50 [1]: 21.4 µM and 86.9 µM and 27.2 µM
TGI [1]: > 100 µM
GI50 [2]: 0.306 µM
TGI [2]: 12 µM and 19.7 µM and 7.37 µM
GI50 [3]: 0.695 µM and 1.37 µM and 2.94 µM
TGI [3]: 12.2 µM and 16.2 µM and 33.2 µM
GI50 [4]: 14.1 µM
TGI [4]: > 100 µM
GI50 [5]: 2.77 µM
TGI [5]: 21.1 µM and 13 µM and 35.9 µM
GI50 [6]: 2.19 µM
TGI [6]: 23.5 µM and 25.6 µM
GI50 [7]: 2.31 µM and 3.12 µM and 7.53 µM
TGI [7]: 13.7 µM and 21.2 µM and 34.7 µM
GI50 [8]: 1.07 µM
TGI [8]: 3.51 µM and 17.1 µM
GI50 [9]: 0.515 µM
TGI [9]: 3.65 µM and 5.2 µM and 3.61 µM
GI50 [10]: 0.607 µM
TGI [10]: 2.12 µM and 8.02 µM

C/C(=C/CCC(C)[C@@H]1CC[C@]2(C)C3=C(CC[C@@]12C)[C@@]1(C)CCC(=O)C(C)(C)[C@@H]1CC3)C(=O)O (some centres undefined)
GI50 [1]: 1.08 µM
TGI [1]: 2.44 µM
GI50 [2]: 1.21 µM
TGI [2]: 2.89 µM
GI50 [3]: 1.42 µM
TGI [3]: 3.2 µM
GI50 [4]: 1.29 µM
TGI [4]: 2.73 µM
GI50 [5]: 1.46 µM
TGI [5]: 3.24 µM
GI50 [6]: 1.78 µM
TGI [6]: 3.18 µM
GI50 [7]: 0.961 µM
TGI [7]: 2.49 µM
GI50 [8]: 1.51 µM
TGI [8]: 3.08 µM
GI50 [9]: 0.885 µM
TGI [9]: 2.37 µM
GI50 [10]: 1.42 µM
TGI [10]: 2.82 µM

COc1cc([C@@H]2c3cc4c(cc3[C@H](SC(=N)N)[C@H]3COC(=O)[C@H]23)OCO4)cc(OC)c1OC
GI50 [1]: 2.6 µM
TGI [1]: > 71.2 µM
GI50 [2]: 0.621 µM
TGI [2]: > 100 µM
GI50 [3]: 0.348 µM
TGI [3]: > 100 µM
GI50 [4]: 0.41 µM
TGI [4]: > 84.2 µM
GI50 [5]: 0.382 µM
TGI [5]: > 100 µM
GI50 [6]: 0.201 µM
TGI [6]: > 33 µM
GI50 [7]: 0.0799 µM
TGI [7]: > 100 µM
GI50 [8]: 2.3 µM
TGI [8]: 35.6 µM
GI50 [9]: 0.299 µM
TGI [9]: > 100 µM
GI50 [10]: 14.4 µM
TGI [10]: > 100 µM

COS(=O)c1cc(Cl)cc(Cl)c1OC(=O)CSSCC(=O)Oc1c(Cl)cc(Cl)cc1S(=O)OC (centres undefined)
TGI [1]: 60 µM
TGI [2]: 37.3 µM
TGI [3]: 61.9 µM
TGI [4]: 64.2 µM
TGI [5]: 46.2 µM
TGI [6]: 80.7 µM
TGI [7]: 43.8 µM
TGI [8]: 43.7 µM
TGI [9]: 27.8 µM
TGI [10]: 33.8 µM

COc1cccc(-c2cc(=O)c3cc(N4CCN(C)CC4)ccc3[nH]2)c1
TGI [1]: > 100 µM
GI50 [2]: 4.68 µM
TGI [2]: > 100 µM
GI50 [3]: 1.78 µM
TGI [3]: 4.99 µM and 6.39 µM
GI50 [4]: 3.74 µM
TGI [4]: > 100 µM
GI50 [5]: 2.06 µM
TGI [5]: 7.21 µM
GI50 [6]: 3.84 µM
TGI [6]: 9.29 µM and 87.2 µM
GI50 [7]: 2.11 µM
GI50 [8]: 0.238 µM
TGI [8]: 5.77 µM and 0.976 µM
GI50 [9]: 3.45 µM
GI50 [10]: 3.99 µM
TGI [10]: > 100 µM

COc1ccc(/C=C/C(=O)c2c(-c3ccccc3)nn(C)c(=O)c2N2CCCCC2)cc1
TGI [1]: 34.7 µM
TGI [2]: 64.2 µM
TGI [3]: > 100 µM
TGI [4]: > 100 µM
TGI [5]: 23.1 µM
TGI [6]: 77.6 µM
TGI [7]: 38.2 µM
TGI [8]: 28 µM
TGI [9]: 50.7 µM
TGI [10]: 30.2 µM

COC(=O)[C@]12CC[C@@H](C)[C@H](C)[C@@H]1C1=CC[C@@H]3[C@@]4(C)C(C=O)=C[C@@](C)(COS(C)(=O)=O)C4=CC[C@@]3(C)[C@]1(C)CC2
GI50 [1]: 0.158 µM
TGI [1]: 0.321 µM
GI50 [2]: 0.339 µM
TGI [2]: 1.92 µM
GI50 [3]: 0.332 µM
TGI [3]: 1.62 µM
GI50 [4]: 0.171 µM
TGI [4]: 0.317 µM
GI50 [5]: 0.244 µM
TGI [5]: 1.05 µM
GI50 [6]: 0.667 µM
TGI [6]: 2.92 µM
GI50 [7]: 0.169 µM
TGI [7]: 0.316 µM
GI50 [8]: 0.17 µM
TGI [8]: 0.358 µM
GI50 [9]: 0.303 µM
TGI [9]: 1.34 µM
GI50 [10]: 0.198 µM
TGI [10]: 0.415 µM

CCN1C(=O)N(CC)C2C1NC(=S)N2/N=C/C=C/c1ccccc1 (centres undefined)
GI50 [1]: 0.192 µM
TGI [1]: > 86.6 µM
GI50 [2]: 0.385 µM
TGI [2]: > 100 µM
GI50 [3]: 0.27 µM
TGI [3]: > 100 µM
GI50 [4]: 0.098 µM
TGI [4]: > 100 µM
GI50 [5]: 0.277 µM
TGI [5]: > 100 µM
GI50 [6]: 0.494 µM
TGI [6]: > 100 µM
GI50 [7]: 0.154 µM
TGI [7]: > 100 µM
GI50 [8]: 0.0899 µM
TGI [8]: > 100 µM
GI50 [9]: 0.546 µM
TGI [9]: > 100 µM
GI50 [10]: 1.91 µM
TGI [10]: > 100 µM

O=C1Nc2ccc(-c3cccnc3)cc2/C1=C/c1cc(Br)c(O)c(Br)c1
GI50 [1]: 6.54 µM
TGI [1]: > 18.3 µM
GI50 [2]: 9.12 µM
TGI [2]: > 25 µM
GI50 [3]: 9.89 µM
TGI [3]: > 25 µM
GI50 [4]: 8.15 µM
TGI [4]: > 25 µM
GI50 [5]: 8.04 µM
TGI [5]: > 25 µM
GI50 [6]: 8.11 µM
TGI [6]: 24.9 µM
GI50 [7]: 4.99 µM
TGI [7]: > 25 µM
GI50 [8]: 6.08 µM
TGI [8]: > 19.9 µM
GI50 [9]: 6.86 µM
TGI [9]: > 21.9 µM
GI50 [10]: 4.89 µM
TGI [10]: 14.6 µM
